In BindingDB's records for doi:10.1021/jm300377g (University of Lille, 2012):

Experiment: Inhibition of EthR in Mycobacterium tuberculosis H37Rv-GFP infected in mouse Raw 264.7 cells assessed as compound concentration allowing 0.1 uM ethionamide to inhibit 50% microbial growth by automated fluorescent confocal microscopy
With Cc1ccc2cc(NC(=O)COc3ccccc3F)ccc2n1 the EC50 was 2200 nM. N#Cc1cccc(OCC(=O)Nc2ccc(-c3nc4ccccc4s3)cc2)c1 gave an EC50 of 340 nM. In the case of Cc1ccc(-n2nc3ccc(NC(=O)COc4ccccc4C)cc3n2)cc1, the EC50 is reported as > 10000 nM. With COc1cccc(SCC(=O)Nc2ccc(-c3nc4ccccc4s3)cc2)c1 the EC50 was > 10000 nM. Molecule COc1cccc(OCC(=O)Nc2ccc(-c3nc4ccccc4s3)cc2)c1 has an EC50 of 210 nM. With COc1cccc(OCC(=O)Nc2ccc(Cl)cc2)c1 the EC50 was 1600 nM.
